Test results from patent US20260206761A1, “HETEROARYL-TRIAZOLE COMPOUNDS AS PESTICIDES” (Bayer Aktiengesellschaft, priority 2019, published 2026).

How the values were obtained:
Type in all cases: in vivo
[1] = system: adult brown dog ticks (Rhipicephalus sanguineus); test: Rhipicephalus sanguineus in-vitro contact test, adult brown dog ticks; settings: after 48 hours, read-out: activity (efficacy: ticks dead or moribund); for pest or weed control at 100 g/ha: application rate 1 pg/cm^2 (=100 g/ha); for pest or weed control at 5 µg/cm2, 500 g/ha: application rate 5 μg/cm^2 (=500 g/ha)
How it was run: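 Compound in acetone was coated onto inner walls of glass tubes by rotation (2 h, 30 rpm); 900 ppm gives 5 μg/cm^2. After drying, 5-10 adult ticks were enclosed per tube at room temperature; after 48 h, heat-escape test at 45-50° C scored dead/moribund ticks as % efficacy.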

[2] = system: Aedes aegypti strain MONHEIM; test: Aedes aegypti test (AEDSAE surface treatment & contact assay); settings: 24 hours after contact, read-out: efficacy (mortality); for mortality at 20 mg/m2: surface concentration 20 mg/m^2, exposure 30 minutes; for mortality at 4 mg/m2: surface concentration 4 mg/m^2, exposure 30 minutes
How it was run: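 Compound in acetone (2 mg/ml) with 2000 ppm RME pipetted onto glazed tile and dried; adult Aedes aegypti MONHEIM exposed 30 min. Percent mortality scored 24 h after contact.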

[3] = system: Rhipicephalus microplus larvae (strain Parkhurst, resistant against synthetic pyrethroids); test: Rhipicephalus (Boophilus) microplus in-vitro contact test, larval cattle tick; settings: after 48 hours, read-out: activity (efficacy: larvae dead or moribund); for pest or weed control at 100 g/ha: application rate 1 pg/cm^2 (=100 g/ha); for pest or weed control at 500 g/ha: application rate 5 pg/cm^2 (=500 g/ha)
How it was run: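 Acetone solutions coated onto inner walls of glass tubes by rotation (900 ppm giving 5 μg/cm^2); after evaporation, 20-50 larvae added per tube and held at 27° C., 85% relative humidity. Efficacy read after 48 h from negative geotactic behaviour; 100% = all larvae dead or moribund.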

[4] = system: green peach aphid (Myzus persicae); test: Myzus persicae oral test; settings: 120 h, application rate 4 ppm, after 5 days
How it was run: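 Oral uptake format: water-diluted acetone concentrate of compound is blended into IPL41 medium carrying 33%+15% sugar and offered under a parafilm membrane. Percentage of dead insects is recorded after 5 days.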

[5] = system: adult unfed cat fleas (Ctenocephalides felis); test: Ctenocephalides felis oral test; settings: 48 h, read-out: activity (mortality)
How it was run: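 About 20 adult unfed fleas fed through parafilm on cattle blood containing compound (DMSO stock diluted in blood), blood held at 37 °C and fleas at room temperature. Mortality (%) scored after 2 days.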

[6] = system: adult engorged female ticks (Rhipicephalus microplus); test: Rhipicephalus (Boophilus) microplus injection test; settings: 168 h, egg deposition after 7 days, read-out: activity (efficacy: infertile eggs); for pest or weed control at 4 pg: application rate 4 pg/animal; for pest or weed control at 0.02 mg: application rate 20 μg/animal
How it was run: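 Efficacy is scored from egg fertility, with 100% meaning every egg infertile and 0% every egg fertile. Five engorged females per test received 1 μL DMSO solution abdominally. Eggs of unclear fertility were kept until hatching, about 42 days.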

[7] = system: Culex quinquefasciatus strain P00; test: Culex quinquefasciatus test (CULXFA surface treatment & contact assay); settings: 24 hours after contact, read-out: efficacy (mortality)
Method: Culex quinquefasciatus Test (CULXFA Surface Treatment & Contact Assay)
Solvent: Aceton+2000 ppm rapeseed oil methyl ester (RME)
In order to produce a sufficient, active ingredient containing solution it is necessary to solve the test compound in the solvent-mix (acetone at 2 mg/ml/RME 2 000 ppm). This solution is pipetted onto a glazed tile and after evaporation of the acetone, adult mosquitoes of the species Culex quinquefasciatus strain P00 are placed onto the dried surface. The exposure time is 30 minutes. Mortality in percent (%) is determined 24 hours after contact of the insects to the treated surface. 100% mortality means that all tested insects are dead, whereas 0% means that no insect died.

[8] = system: fall armyworm larvae (Spodoptera frugiperda); test: Spodoptera frugiperda spray test; settings: 168 h, read-out: activity (mortality)
How it was run: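 Compound in acetone/DMF, diluted in water with 1000 ppm alkylarylpolyglycol ether emulsifier, sprayed on maize leaf sections. Dried leaves infested with fall armyworm larvae; % mortality after 7 days (100% = all killed, 0% = none).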

[9] = system: cattle ticks (Rhipicephalus microplus) strain Parkhurst, SP-resistant; test: Rhipicephalus (Boophilus) microplus dip test; settings: 168 h, application rate 100 ppm, egg deposition after 7 days, read-out: activity (efficacy: infertile eggs)
Method: Rhipicephalus (Boophilus) microplus—Din Test
Test animal: cattle ticks (Rhipicephalus microplus) strain Parkhurst, SP-resistant
Solvent: dimethyl sulfoxide
To produce a suitable preparation of active compound, 10 mg of active compound are dissolved in 0.5 mL solvent, and the concentrate is diluted with water to the desired concentration.
This compound solution is pipetted into tubes. 8-10 engorged, adult, female cattle ticks (Rhipicephalus microplus) are placed in perforated tubes. These tubes are immersed in the aqueous compound solution until the ticks are completely moistened. After the liquid has drained off, the ticks are transferred to a filter paper in a plastic tray and stored in a climate chamber.
After 7 days egg deposition of fertile eggs is monitored. Eggs where fertility is not visible are stored in a climate chamber till hatching after about 42 days. An efficacy of 100% means all eggs are infertile; 0% means all eggs are fertile.

[10] = system: larvae of the banded cucumber beetle (Diabrotica balteata); test: Diabrotica balteata spray test; settings: 168 h, application rate 100 g/ha (=32 pg/well), after 7 days, read-out: activity (efficacy: seedlings grown)
How it was run: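 Wheat seedlings, germinated 1 day on agar (5 seeds/well), sprayed with active compound in acetone/DMF diluted in water containing 1000 ppm emulsifier, then infested with 10-20 D. balteata larvae. Efficacy (%) scored after 7 days: 100% = seedlings grown as untreated uninfested control, 0% = no seedlings grown.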

[11] = system: southern root-knot nematode (Meloidogyne incognita); test: Meloidogyne incognita test; settings: 336 h, application rate 20 ppm, after 14 days, read-out: nematicidal activity (based on gall formation)
Method: Meloidoyne incognita—Test
Solvent: 125.0 parts by weight of acetone
To produce a suitable preparation of active compound, 1 part by weight of active compound is mixed with the stated amount of solvent, and the concentrate is diluted with water to the desired concentration.
Vessels are filled with sand, a solution of the active ingredient, a suspension containing eggs and larvae of the southern root-knot nematode (Meloidogyne incognita) and salad seeds. The salad seeds germinate and the seedlings grow. Galls develop in the roots.
After 14 days the nematicidal activity is determined based on the percentage of gall formation. 100% means no galls were found and 0% means the number of galls found on the roots of the treated plants was equal to that in untreated control plants.

[12] = system: green peach aphid (Myzus persicae); test: Myzus persicae spray test; settings: 120 h, application rate 100 g/ha, after 5 days
How it was run: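 Chinese cabbage leaf disks carrying all instars of M. persicae sprayed with compound in acetone/DMF, diluted in water with 1000 ppm alkylarylpolyglycol ether emulsifier. Percent mortality scored after 5 days (100% = all aphids killed).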

[13] = system: larvae of the southern green stink bug (Nezara viridula); test: Nezara viridula spray test; settings: 96 h, after 4 days; for mortality at 100 g/ha: application rate 100 g/ha; for mortality at 500 g/ha: application rate 500 g/ha
How it was run: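 Compound in acetone/dimethylformamide, diluted in water with 1000 ppm alkylarylpolyglycol ether emulsifier, sprayed onto barley plants carrying stink bug larvae. Mortality (%) scored after 4 days, 100% meaning all insects killed.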

[14] = system: adult cat fleas (Ctenocephalides felis); test: Ctenocephalides felis in-vitro contact test, adult cat flea; settings: application rate 5 μg/cm^2 (=500 g/ha), after 48 hours, read-out: activity (efficacy: fleas dead or moribund)
How it was run: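 Acetone solutions of compound coated onto inner walls of glass tubes (900 ppm giving […]); after drying, 5-10 adult Ctenocephalides felis added and held at room temperature. At 48 h, fleas placed on a 45-50° C heating plate; those unable to climb away scored dead or moribund, expressed as % efficacy.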

| SMILES | pest or weed control at 100 g/ha [1] [%] | pest or weed control at 5 µg/cm2, 500 g/ha [1] [%] | mortality at 20 mg/m2 [2] [%] | pest or weed control at 100 g/ha [3] [%] | pest or weed control at 500 g/ha [3] [%] | mortality at 4 ppm [4] [%] | mortality at 100 ppm [5] [%] | pest or weed control at 4 pg [6] [%] | pest or weed control at 0.02 mg [6] [%] | mortality at 100 g/ha [8] [%] | pest or weed control at 100 g/ha [10] [%] | pest or weed control at 20 ppm [11] [%] | mortality at 100 g/ha [13] [%] | pest or weed control at 5 µg/cm2 [14] [%] | other results |
| --- | --- | --- | --- | --- | --- | --- | --- | --- | --- | --- | --- | --- | --- | --- | --- |
| C[C@H](NC(=O)c1cc(C(F)(F)F)cc(S(=O)(=O)C2CC2)c1)c1nc(C2CC2)nn1-c1ccc(C#N)cn1 [I-15] | 100 | 100 | 80 to 100 | 100 | 100 | 100 | 100 | 100 | 100 | 100 |  |  |  |  | mortality at 4 mg/m2 ([7]; surface concentration 4 mg/m^2, exposure 30 minutes): 80 to 100%; pest or weed control at 100 ppm [9]: 80% |
| CC(C)c1nc([C@H](C)NC(=O)c2cc(Cl)cc(S(=O)(=O)C3CC3)c2)n(-c2ccc(C#N)cn2)n1 [I-18] |  | 100 |  | 90 | 90 | 100 | 80 | 100 | 100 |  | 100 | 100 |  |  |  |
| CC(C)c1nc([C@H](C)NC(=O)c2cc(Cl)cc(S(=O)(=O)CC(F)(F)F)c2)n(-c2ccc(C#N)cn2)n1 [I-21, 3-chloro-N-{(1S)-1-[1-(5-cyanopyridin-2-yl)-3-isopropyl-1H-1,2,4-triazol-5-yl]ethyl}-5-[(2,2,2-trifluoroethyl)sulfonyl]benzamide] |  |  |  |  |  |  |  | 100 | 100 |  |  | 90 |  |  | mortality at 100 g/ha [12]: 90% |
| C[C@H](NC(=O)c1cc(Cl)cc(S(=O)(=O)C2CC2)c1)c1nc(C2CC2)nn1-c1ccc(C#N)cn1 [I-22] |  | 80 |  | 100 | 100 | 100 | 100 | 100 | 100 | 100 | 100 | 100 |  |  |  |
| CCS(=O)(=O)c1cc(Cl)cc(C(=O)N[C@@H](C)c2ncnn2-c2ccc(C#N)cn2)c1 [II-20] |  |  | 80 to 100 | 100 | 100 | 100 |  | 100 | 100 | 83 |  | 90 | 100 | 100 | mortality at 500 g/ha [13]: 100%; mortality at 4 mg/m2 [2]: 80 to 100%; mortality at 20 mg/m2 ([7]; surface concentration 20 mg/m^2, exposure 30 minutes): 80 to 100%; mortality at 500 g/ha [8]: 100% |
| C[C@H](NC(=O)c1cc(Cl)cc(S(=O)(=O)C2CC2)c1)c1ncnn1-c1ccc(C#N)cn1 [II-21] |  |  | 80 to 100 | 100 | 100 | 100 |  | 100 | 100 | 100 |  | 90 | 90 | 100 | mortality at 500 g/ha [13]: 100%; mortality at 4 mg/m2 [2]: 80 to 100%; mortality at 500 g/ha [8]: 100% |
| C[C@H](NC(=O)c1cc(C(F)F)cc(C2CC2)c1)c1ncnn1-c1ccc(C#N)cn1 [II-60] | 100 | 100 |  | 100 | 100 | 100 | 90 | 100 |  | 100 | 100 | 90 | 90 | 100 |  |
| Cc1nc([C@H](C)NC(=O)c2cc(OC(F)F)cc(C3CC3)c2)n(-c2ccc(C#N)cn2)n1 [II-63] | 100 | 100 |  | 100 | 100 | 100 |  | 100 |  | 100 | 100 | 90 |  | 100 | mortality at 100 g/ha [12]: 100% |
